Several values for one entry are separate records, joined by “and”; a condition that tells them apart may be missing. Equal entries are not always repeated.
Experiments:
[1] = tested on: MPTP induced cell death in the SN; test: Parkinson's disease in vivo: MPTP model; design: species or system mouse; conditions: MPTP mice; for Behaviour Pole Test, % (SSV = 0%) / Behaviour Pole Test, value ± SD: 30 mg/kg; for SN cell counts % of SSV / SN cell counts (cells +/− SD): test drug 30 mg/kg daily by oral gavage, several experiments
Text: Parkinson's Disease In Vivo Technique: MPTP
MPTP (1-methyl 4-phenyl 1,2,3,6-tetrahydropyridine) is a chemical that is related to the opioid analgesic drugs. MPTP causes Parkinsonian side-effects. This occurs when MPTP is metabolized into MPP+, which kills neurons in a part of the brain called the substantia nigra. MPP+ interferes with mitochondria metabolism which leads to cell death and causes the build up of free radicals, toxic molecules that contribute further to cell destruction. MPTP has abilities to effect neuronal death in dopaminergic cells. Such effects lead to gross depletion of dopaminergic neurons which has severe implications on cortical control of complex movements.
General Experimental Design
Determining that MPTP Causes Continued Cell Death
Control (non tg) and transgenic mice receive five intraperitoneal injections of MPTP-HCl (23 gauge needle, 20 mg\kg of free base; Sigma, St. Louis, Mo., USA) dissolved in sterile 0.9% saline at 2-h interval in 1 day. Control animals receive five intraperitoneal injections of 0.9% saline. […] 20 C57BL6, 10 control and 10 hA53T tg are used to establish the precise dose of toxin at 2 weeks. Animals are allowed to recover for 1 week, 2 weeks, 1 month, 12, months and 18 months. The animals are killed and the brains removed for histological (stereological) and biochemical analysis.
Determining Whether Test Drug Reduces MPTP Induced Cell Death
Animals are treated as described above. They are treated with test drug 2 days after MPTP injection until death. Test drug is given by oral gavage at a daily dosage of 30 mg/kg. The time of killing the animals is dependant on the analysis of Experiment 1, normally one month or less.
Drugs are administered by oral gavage, at a daily dosage of 30 mg/kg.
Mice are assessed at prior to killing the mice for histological analysis.
Motor coordination and strength are assessed using the rotarod. The rotarod consists of a plastic rotating rod of 3.6 cm axial diameter partitioned by metal disks into five sections to allow the testing of multiple mice simultaneously. Mice are trained on two sessions where the rotation speed is ramped from 0-30 rpm over 5 min and one training session where rotation is a constant 16 rpm for 5 min. Within two days of training, animals are formally assessed on the rotarod rotating at 16 rpm for a maximum of 3 min: the time to fall on this single test is the recorded data point.
The pole is a 700 mm long, 5 mm diameter, wooden rod. The rod is supported at its base and held vertical. The total walking distance for the mice is 550 mm. The time taken for the mouse to descend the pole is measured with a maximum time of 120 s. If a mouse falls, the time is scored as 120 s.

[2] = tested on: generation of hydrogen peroxide (H2O2) by iron; test: H2O2 Inhibition Assay; assay type: biochemical
Method: Assay 1. H2O2 Inhibition Assay.
(§1) This fluoresence assay evaluates the ability of a test compound to inhibit the generation of hydrogen peroxide (H2O2) by iron in the presence of a reducing substrate such as ascorbic acid. In the assay, iron in the form of FeCl3 or copper is allowed to react with ascorbic acid by incubating for 1 hr at 37° C. in the presence of the fluorescing compound DCF and horseradish peroxidase. H2O2 generated by the system is assessed by measuring the specific fluorescence profile at the excitation and emission wavelengths of 485 and 530 nm respectively, in the presence of increasing concentrations of test compound. Test compounds are ranked according to their capacity to inhibit H2O2 generated by the system where lower values reflect greater ability to inhibit H2O2 production.

Fe-DA = test: H2O2 assay, Fe-DA (% cf. Fe 0.4 μM/DA 50 μM); assay type: biochemical
Method: as §1

M17 = test: Cytotox (% viable), cells marked M17; assay type: cell-based, human; conditions: repeat values given
[3] = tested on: M17 human neuroblastoma cells; test: Metal Uptake Assay (metal transport); assay type: cell-based; conditions: 10 μM Cu + 10 μM compound, 5 hours
Method: Assay 3. Metal Uptake Assay
M17 human neuroblastoma cells are plated out on 6 well plates and left overnight. Enough cells are added to give approximately 70% confluent the following day of the experiment. Test compounds are added to media and mixed with equi-molar amounts of CuCl2 solution. A=10 μM Cu+10 μM MPAC; B=10 μM Cu+10 μM MPAC.
Cells are incubated in 1 ml of media/MPAC/Cu mix for 5 hours at 37° C. At the end of the incubation the media is removed with a vacuum aspirator and 1 ml of PBS added to dislodge the cells. Cells are then put into Eppendorf tubes and pelleted. The PBS is removed and the remaining cell pellets are frozen at −20 C.
The cell pellets are prepared as follows:
Received cell pellets of similar levels in 1.5 ml microfuge tubes. Added 50 μl of concentrated Nitric Acid (Aristar, BDH) to each cell pellet and allowed them to digest over night. Heated the samples for 20 min at 90° C. to complete the digestion. The volume of each sample was reduced to ˜45 ul after digestion. Added 1 ml of the 1% Nitric Acid diluent to each sample. (referred to as the “preparation solution” samples).
Measurements were made using a Varian UltraMass ICPMS instrument under operating conditions suitable for routine multi-element analysis.
The instrument was calibrated using Blank, 10, 50 and 100 ppb of a certified multi-element ICPMS standard solution (ICP-MS—CAI2-1, Accustandard) for Fe, Cu and Zn in 1% nitric acid. Used an certified internal standard solution containing 100 ppb Yttrium (Y 89) as an internal control (ICP-MS—IS-MIX1-1, Accustandard).

Mouse Plasma Conc. = assay type: in vivo; conditions: given as 'Up to'
Neuronal cortical cells = test: Cytotox (% viable); Primary Neuronal Cells Neurotoxicity Assay; assay type: cell-based, mouse; conditions: cell type not given, repeat values given
Method: Assay 2 (a). Primary Neuronal Cells Neurotoxicity Assays
Cortical cultures were prepared as previously described (White et al., 1998). Embryonic day 14 BL6Jx129sv mouse cortices were removed, dissected free of meninges and dissociated in 0.025% (wt/vol) trypsin. Dissociated cells were plated in 48 well culture plates at a density of 2×10^6 cells/mL in MEM with 25% (vol/vol) FCS and 5% (vol/vol) HS and incubated at 37° C., 2 hrs. Media was then replaced with Neurobasal media (Invitrogen Life Technologies) and B27 supplements (Invitrogen Life Technologies). Cultures were maintained at 37° C. in 5% CO2. Prior to experimentation, the culture medium was replaced with Neurobasal media and B27 minus antioxidants (Invitrogen Life Technologies).
Neuronal cortical cells were cultured for five days as per Assay 2 in NB media and B27 supplement.
On day six the test compounds were added to the neuronal cell cultures in NB media and B27 supplement minus antioxidants.
Test compounds were dissolved in 100% DMSO to a concentration of 2.5 mM (10 mM if excess compound was weighed out per vial—then diluted to 2.5 mM). 2.5 mM stock solution was serially diluted 1 in 10 to give working solutions of 250 uM, 25 uM, 2.5 uM. Test compounds were not added directly to cells, instead they were added to a 48 well ‘Drug Plate’ as comprised below: • Preparation of “Drug Plate”:
Well 1: 576 ul NB+B27 (no antioxidant)*+24 ul 2.5 uM test compound
Well 2: 576 ul NB+B27 (no antioxidant)+24 μl 25 uM test compound
Well 3: 576 ul NB+B27 (no antioxidant)+24 ul 250 uM test compound
Well 4: 576 ul NB+B27 (no antioxidant)+24 ul 2.5 uM test compound
Well 5: 576 ul NB+B27 (no antioxidant)+24 ul 25 uM test compound
Well 6: 576 ul NB+B27 (no antioxidant)+24 ul 250 uM test compound
Well 7: 576 ul NB+B27 (no antioxidant)+24 ul test compound diluent**
Well 8: 600 ul NB+B27 (no antioxidant)
The Drug Plate was incubated at 37° C. for 15 mins. 200 ul of each well was added in triplicate to the corresponding cell plate. The cell plate was incubated at 37° C., for 4 days, (2 compounds are tested on each plate of cells).
*NB media and B27 (no antioxidants),
**PBT diluent 10% DMSO in NB+1327 (no antioxidants)
On completion of the assay, 1/10 volume MTS was added per well of plate (ie 25 ul/250 ul). The plates were incubated at 37° C. for 2 hrs, and then absorbance was read at 560 nm.

Row | Structure (SMILES) | IC50 [2] | Mouse Plasma Conc. (Mouse Plasma Conc.) | Behaviour Pole Test, % (SSV = 0%) [1] | Behaviour Pole Test, value ± SD [1] | SN cell counts % of SSV [1] | SN cell counts (cells +/− SD) [1] | Fe-DA % cf. Fe 0.4 μM/DA 50 μM (Fe-DA) | Cytotox (% viable at 1 uM) (M17) | Cytotox (% viable at 10 uM) (M17) | Metal transport [3] | Fe-DA % cf. Fe/DA (Fe-DA; 2 μM Fe) | Cytotox (% viable at 1 uM) (Neuronal cortical cells) | Cytotox (% viable at 10 uM) (Neuronal cortical cells)
1 | CCCn1c(CNC)nc2c(O)c(Cl)cc(Cl)c2c1=O [Compound F4095, 5,7-Dichloro-8-hydroxy-2-((methylamino)methyl)-3-propylquinazolin-4(3H)-one] |  |  | 24.25% | (2.21 ± 0.89) | 12.15% | (2436.00 ± 603.06) cells |  |  |  |  |  |  | 
2 | CCN1CCN(Cc2nc3c(O)c(Cl)cc(Cl)c3c(=O)n2CC2CC2)CC1 [Compound F4383] | 1510 nM |  |  |  |  |  | 81% | 118.5% and 102.3% | 103.4% and 92.7% | Metal transport 8% |  |  | 
3 | O=c1c2c(Cl)cc(Cl)c(O)c2nc(CN2CCOCC2)n1CC1CC1 [Compound F4384] |  |  |  |  |  |  |  | 116.3% and 106.4% | 86.5% and 73.0% | Metal transport 17% |  |  | 

More lines, main results first:

Row | IC50 [2] | Mouse Plasma Conc. (Mouse Plasma Conc.) | Structure (SMILES) | Behaviour Pole Test, % (SSV = 0%) [1] | Behaviour Pole Test, value ± SD [1] | SN cell counts % of SSV [1] | SN cell counts (cells +/− SD) [1] | Fe-DA % cf. Fe 0.4 μM/DA 50 μM (Fe-DA) | Cytotox (% viable at 1 uM) (M17) | Cytotox (% viable at 10 uM) (M17) | Metal transport [3] | Fe-DA % cf. Fe/DA (Fe-DA; 2 μM Fe) | Cytotox (% viable at 1 uM) (Neuronal cortical cells) | Cytotox (% viable at 10 uM) (Neuronal cortical cells)
4 | 170 nM |  | CC(C)Cn1c(CN(C)C)nc2c(O)c(Cl)cc(Cl)c2c1=O.Cl [Compound F4271, 5,7-Dichloro-2-((dimethylamino)methyl)-8-hydroxy-3-isobutylquinazolin-4(3H)-one] |  |  |  |  | 57% | 104.4% and 102.3% | 61.5% and 52.5% | Metal transport 27.8% |  |  | 
5 | 330 nM | ≤ 3294.1 ng/mL | CCN(CC)Cc1nc2c(O)c(Cl)cc(Cl)c2c(=O)n1CC [Compound F4386] |  |  |  |  | 77% | 101.8% and 99.8% and 101.4% and 107.9% | 105.2% and 91.9% and 111.7% and 106.8% | Metal transport 13% |  |  | 
6 | 590 nM | ≤ 17255.9 ng/mL | O=c1c2c(Cl)cc(Cl)c(O)c2nc(CN2CCCCC2)n1CC1CC1 [Compound F4391] | 9.96% | (2.63 ± 1.10) | 25.18% | (2719.11 ± 255.12) cells |  | 87.4% and 95.9% and 96.0% | 57.5% and 70.5% and 66.5% | Metal transport 34% | 97% |  | 
7 | 600 nM | ≤ 1356.2 ng/mL | CCN(CC)Cc1nc2c(O)c(Cl)cc(Cl)c2c(=O)n1C [Compound F4473] |  |  |  |  | 62% |  |  | Metal transport 9% |  | 97.0% and 99.0% | 91.6% and 106.1%
8 | 330 nM | ≤ 1585.2 ng/mL | CCn1c(CN2CCCCC2)nc2c(O)c(Cl)cc(Cl)c2c1=O [Compound F4483] |  |  |  |  | 62% |  |  | Metal transport 22% |  | 93.4% and 105.5% | 99.7% and 72.3%
